Measured values from US7547727B2, “Therapeutic cyclopentane derivatives” (Allergan, Inc., priority 2006, dated 2009).

Experiments:
human EP2 receptors = target: T1, human EP2 receptors (Homo sapiens, UniProt P43116); assay: Competition radioligand binding, EP2; conditions: HEK 293 cells stably expressing human EP2 receptors, [3H]PGE2
T1 construct: expressed in transfected cells; host or cells: HEK 293 (membranes or whole cells)
Procedure: Competition binding experiments were performed in a medium containing Hank's balanced salt solution, Hepes 20 mM, pH 7.3, membranes (˜60 μg protein) or 2×10^5 cells from HEK 293 cells stably expressing human EP2 receptors, [^3H]PGE2 (10 nM) and various concentrations of test compounds in a total volume of 300 μl. Reaction mixtures were incubated at 23° C. for 60 min, and were filtered over Whatman GF/B filters under vacuum. Filters were washed three times with 5 ml ice-cold buffer containing 50 mM Tris/HCl (pH 7.3). Non-specific binding was estimated in the presence of excess unlabeled PGE2 (10 μM). Binding data fitted to the binding model for a single class of binding sites, using nonlinear regression analysis. IC50 values thus obtained were converted to Ki using the equation of Ki=(IC50/(1+[L]/KD) where [L] represents PGE2 concentration (10 nM) and KD the dissociation constant for [^3H]PGE2 at human EP2 receptors (40 nM). […]
The cell homogenate was centrifuged at 19000 r.p.m. for 20 min at 4° C. using a Beckman Ti-60 rotor. The resultant pellet was resuspended in TME buffer to give a final 1 mg/ml protein concentration, as determined by Biorad assay. […]
[^3H-] […] 17-phenyl PGF2α and non-specific binding determined with 10^−5M of unlabeled PGE2, or 17-phenyl PGF2α, according to receptor subtype studied.

EP4 receptors = target: T2, EP4 receptors (Homo sapiens, UniProt P35408); assay: Radioligand binding, EP4; conditions: HEK-293 cells stably expressing EP4 receptors, [3H]PGE2
T2 construct: expressed in transfected cells; host or cells: HEK-293 (plasma membrane fraction)
T2 sequence (P35408 whole entry): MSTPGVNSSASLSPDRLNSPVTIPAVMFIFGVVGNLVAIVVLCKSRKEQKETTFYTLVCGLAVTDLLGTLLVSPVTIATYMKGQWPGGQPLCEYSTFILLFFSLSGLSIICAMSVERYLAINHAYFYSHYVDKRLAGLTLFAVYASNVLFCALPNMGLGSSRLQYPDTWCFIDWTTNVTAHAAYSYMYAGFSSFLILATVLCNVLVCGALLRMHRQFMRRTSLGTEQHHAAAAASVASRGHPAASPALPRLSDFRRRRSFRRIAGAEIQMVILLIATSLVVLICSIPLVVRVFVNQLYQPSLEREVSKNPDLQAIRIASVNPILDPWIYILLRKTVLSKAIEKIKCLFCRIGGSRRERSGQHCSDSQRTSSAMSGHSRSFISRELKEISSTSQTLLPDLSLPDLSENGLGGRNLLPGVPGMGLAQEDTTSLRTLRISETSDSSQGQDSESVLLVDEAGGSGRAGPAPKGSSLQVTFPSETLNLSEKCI
Procedure: HEK-293 cells stably expressing the human or feline FP receptor, or EP1, EP2, or EP4 receptors were washed with TME buffer, scraped from the bottom of the flasks, and homogenized for 30 sec using a Brinkman PT 10/35 polytron. TME buffer was added to achieve a final 40 ml volume in the centrifuge tubes (the composition of TME is 100 mM TRIS base, 20 mM MgCl2, […]; 10N HCl is added to achieve a pH of 7.4).
The cell homogenate was centrifuged at 19000 r.p.m. for 20 min at 4° C. using a Beckman Ti-60 rotor. The resultant pellet was resuspended in TME buffer to give a final 1 mg/ml protein concentration, as determined by Biorad assay. Radioligand binding competition assays vs. [^3H-]17-phenyl PGF2α (5 nM) were performed in a 100 μl volume for 60 min. Binding reactions were started by adding plasma membrane fraction. The reaction was terminated by the addition of 4 ml ice-cold TRIS-HCl buffer and rapid filtration through glass fiber GF/B filters using a Brandel cell harvester. The filters were washed 3 times with ice-cold buffer and oven dried for one hour.
[^3H-] PGE2 (specific activity 180 Ci mmol) was used as the radioligand for EP receptors. [^3H] 17-phenyl PGF2α was employed for FP receptor binding studies. […] 17-phenyl PGF2α and non-specific binding determined with 10^−5M of unlabeled PGE2, or 17-phenyl PGF2α, according to receptor subtype studied.

hFP = target: T3, hFP (Homo sapiens, UniProt P43088); assay: FLIPR calcium signal, FP; type: cell-based; conditions: HEK-293(EBNA) cells
T3 construct: expressed in transfected cells; host or cells: HEK-293(EBNA)
T3 sequence (P43088 whole entry): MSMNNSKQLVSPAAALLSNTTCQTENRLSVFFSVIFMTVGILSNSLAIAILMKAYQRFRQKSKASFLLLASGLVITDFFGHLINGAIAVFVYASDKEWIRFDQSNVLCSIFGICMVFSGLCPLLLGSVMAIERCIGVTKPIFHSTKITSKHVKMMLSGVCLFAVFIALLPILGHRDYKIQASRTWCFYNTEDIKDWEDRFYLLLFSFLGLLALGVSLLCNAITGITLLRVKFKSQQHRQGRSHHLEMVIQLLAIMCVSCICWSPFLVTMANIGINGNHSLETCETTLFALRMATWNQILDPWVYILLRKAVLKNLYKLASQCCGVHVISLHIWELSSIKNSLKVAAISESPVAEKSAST
Procedure: (§1) HEK-293(EBNA) cells, stably expressing one type or subtype of recombinant human prostaglandin receptors (prostaglandin receptors expressed: hDP/Gqs5; hEP1; hEP2/Gqs5; hEP3A/Gqi5; hEP4/Gqs5; hFP; hIP; hTP), were cultured in 100 mm culture dishes in high-glucose DMEM medium containing 10% fetal bovine serum, 2 mM I-glutamine, 250 μg/ml geneticin (G418) and 200 μg/ml hygromycin B as selection markers, and 100 units/ml penicillin G, 100 μg/ml streptomycin and 0.25 μg/ml amphotericin B.
(§2) Cells were seeded at a density of 5×10^4 cells per well in Biocoat® Poly-D-lysine-coated black-wall, clear-bottom 96-well plates (Becton-Dickinson) and allowed to attach overnight in an incubator at 37° C. Cells were then washed two times with HBSS-HEPES buffer (Hanks Balanced Salt Solution without bicarbonate and phenol red, 20 mM HEPES, pH 7.4) using a Denley Cellwash plate washer (Labsystems). […]
(§3) Cells were excited with an Argon laser at 488 nm, and emission was measured through a 510-570 nm bandwidth emission filter (FLIPR™, Molecular Devices, Sunnyvale, Calif.). […] The peak increase in fluorescence intensity was recorded for each well. […] The peak fluorescence change in each drug-containing well was then expressed relative to the controls. […]

hEP1 = target: T4, hEP1 (Homo sapiens, UniProt P34995); assay: FLIPR calcium signal, EP1; type: cell-based; conditions: HEK-293(EBNA) cells
T4 construct: expressed in transfected cells; host or cells: HEK-293(EBNA)
T4 sequence (P34995 1-402): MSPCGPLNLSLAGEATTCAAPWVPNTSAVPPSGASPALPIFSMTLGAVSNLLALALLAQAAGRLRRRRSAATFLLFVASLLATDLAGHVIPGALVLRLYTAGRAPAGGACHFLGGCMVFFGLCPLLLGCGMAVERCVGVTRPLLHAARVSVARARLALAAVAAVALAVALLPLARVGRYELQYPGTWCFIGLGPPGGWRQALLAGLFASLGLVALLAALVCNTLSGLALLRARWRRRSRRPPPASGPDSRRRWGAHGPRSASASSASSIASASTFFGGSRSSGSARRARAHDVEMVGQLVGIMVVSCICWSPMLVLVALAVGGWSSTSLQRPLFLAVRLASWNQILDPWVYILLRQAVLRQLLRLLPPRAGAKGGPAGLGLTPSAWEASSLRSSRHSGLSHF
Procedure: as §1, §2, §3

hEP2/Gqs5 = target: T5, hEP2/Gqs5 (Homo sapiens, UniProt P43116); assay: FLIPR calcium signal, EP2; type: cell-based; conditions: HEK-293(EBNA) cells, read-out: Ca2+ Signal-EC50(nM) EP2
T5 construct: expressed in transfected cells; host or cells: HEK-293(EBNA)
T5 sequence (P43116 whole entry): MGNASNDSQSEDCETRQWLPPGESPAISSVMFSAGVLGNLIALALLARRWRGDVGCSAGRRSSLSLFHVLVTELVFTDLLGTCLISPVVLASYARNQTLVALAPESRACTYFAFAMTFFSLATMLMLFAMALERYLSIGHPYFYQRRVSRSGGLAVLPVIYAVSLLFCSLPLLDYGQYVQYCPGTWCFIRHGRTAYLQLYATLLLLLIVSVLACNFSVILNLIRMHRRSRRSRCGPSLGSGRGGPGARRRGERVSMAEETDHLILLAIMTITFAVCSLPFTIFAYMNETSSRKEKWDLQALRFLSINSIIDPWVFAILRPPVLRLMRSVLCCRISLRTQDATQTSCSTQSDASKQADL
Procedure: as §1, §2, §3

hEP3A/Gqi5 = target: T6, hEP3A/Gqi5 (Homo sapiens, UniProt P43115); assay: FLIPR calcium signal, EP3; type: cell-based; conditions: HEK-293(EBNA) cells, read-out: Ca2+ Signal-EC50(nM) EP3
T6 construct: expressed in transfected cells; host or cells: HEK-293(EBNA)
T6 sequence (P43115 1-390): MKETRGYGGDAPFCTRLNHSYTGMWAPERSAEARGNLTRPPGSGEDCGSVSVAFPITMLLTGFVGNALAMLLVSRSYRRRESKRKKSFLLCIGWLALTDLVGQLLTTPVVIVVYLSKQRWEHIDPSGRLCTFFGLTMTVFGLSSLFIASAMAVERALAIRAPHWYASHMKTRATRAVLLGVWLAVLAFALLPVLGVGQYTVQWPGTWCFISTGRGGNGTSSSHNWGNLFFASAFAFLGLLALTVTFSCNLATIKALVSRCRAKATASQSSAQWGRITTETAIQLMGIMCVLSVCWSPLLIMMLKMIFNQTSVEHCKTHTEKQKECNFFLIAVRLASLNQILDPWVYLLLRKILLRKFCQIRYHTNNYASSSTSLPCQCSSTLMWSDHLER
Procedure: as §1, §2, §3

hEP4/Gqs5 = target: T7, hEP4/Gqs5 (Homo sapiens, UniProt P35408); assay: FLIPR calcium signal, EP4; type: cell-based; conditions: HEK-293(EBNA) cells
T7 construct: expressed in transfected cells; host or cells: HEK-293(EBNA)
T7 sequence (P35408 whole entry): as the sequence (P35408 whole entry) above
Procedure: as §1, §2, §3

hTP = target: T8, hTP (Homo sapiens, UniProt P21731); assay: FLIPR calcium signal, TP; type: cell-based; conditions: HEK-293(EBNA) cells
T8 construct: expressed in transfected cells; host or cells: HEK-293(EBNA)
T8 sequence (P21731 1-343): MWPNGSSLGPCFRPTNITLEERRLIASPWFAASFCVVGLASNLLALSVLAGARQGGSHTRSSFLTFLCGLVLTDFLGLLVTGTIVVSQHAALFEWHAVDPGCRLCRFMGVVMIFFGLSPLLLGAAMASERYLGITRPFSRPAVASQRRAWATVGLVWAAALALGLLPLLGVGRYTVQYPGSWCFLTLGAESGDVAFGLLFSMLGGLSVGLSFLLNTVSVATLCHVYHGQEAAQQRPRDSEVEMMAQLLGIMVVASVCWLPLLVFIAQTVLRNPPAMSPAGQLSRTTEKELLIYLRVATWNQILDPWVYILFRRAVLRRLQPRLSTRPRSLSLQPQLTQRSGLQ
Procedure: as §1, §2, §3

hIP = target: T9, hIP (Homo sapiens, UniProt P43119); assay: FLIPR calcium signal, IP; type: cell-based; conditions: HEK-293(EBNA) cells
T9 construct: expressed in transfected cells; host or cells: HEK-293(EBNA)
T9 sequence (P43119 whole entry): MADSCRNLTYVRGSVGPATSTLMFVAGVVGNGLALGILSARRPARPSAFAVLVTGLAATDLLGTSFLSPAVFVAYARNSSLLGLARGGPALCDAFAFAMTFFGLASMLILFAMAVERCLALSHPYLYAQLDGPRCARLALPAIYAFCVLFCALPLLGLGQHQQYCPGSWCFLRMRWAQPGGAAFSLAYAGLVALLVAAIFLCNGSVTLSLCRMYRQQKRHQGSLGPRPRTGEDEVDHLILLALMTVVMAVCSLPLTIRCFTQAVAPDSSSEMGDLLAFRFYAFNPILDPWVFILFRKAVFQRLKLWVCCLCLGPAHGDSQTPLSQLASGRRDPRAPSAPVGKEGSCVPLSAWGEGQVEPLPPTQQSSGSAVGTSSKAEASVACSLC
Procedure: as §1, §2, §3

hDP/Gqs5 = target: T10, hDP/Gqs5 (Homo sapiens, UniProt Q13258); assay: FLIPR calcium signal, DP; type: cell-based; conditions: HEK-293(EBNA) cells
T10 construct: expressed in transfected cells; host or cells: HEK-293(EBNA)
T10 sequence (Q13258 1-359): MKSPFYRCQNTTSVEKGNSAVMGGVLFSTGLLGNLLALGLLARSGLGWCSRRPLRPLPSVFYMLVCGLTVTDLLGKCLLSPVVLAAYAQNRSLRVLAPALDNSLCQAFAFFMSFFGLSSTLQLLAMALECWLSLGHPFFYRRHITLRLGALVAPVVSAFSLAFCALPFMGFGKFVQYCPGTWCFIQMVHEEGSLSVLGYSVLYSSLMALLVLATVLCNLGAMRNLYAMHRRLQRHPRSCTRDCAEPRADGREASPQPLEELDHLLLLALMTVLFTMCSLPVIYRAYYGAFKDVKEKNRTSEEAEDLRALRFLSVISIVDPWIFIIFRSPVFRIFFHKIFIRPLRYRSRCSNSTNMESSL
Procedure: as §1, §2, §3

T1 sequence (P43116 whole entry): as the sequence (P43116 whole entry) above

For `CCCCCC(O)c1ccc([C@@H]2[C@@H](C/C=C\CCCC(=O)O)[C@H](C#N)C[C@H]2O)cc1` (stereo partly drawn) [(Z)-7-{(1S,2S,3R,5R)-5-Cyano-3-hydroxy-2-[4-(1-hydroxy-hexyl)-phenyl]-cyclopentyl}-hept-5-enoic acid], the Ki (human EP2 receptors) was 1250 nM, the Ki (EP4 receptors) was over 10000 nM and the “Ca2+ Signal-EC50(nM) FP” value (hFP) was “not active”. The “Ca2+ Signal-EC50(nM) EP1” value (hEP1) was “not active”, the EC50 (hEP2/Gqs5) was 34 nM and the EC50 (hEP3A/Gqi5) was 10000 nM. The “Ca2+ Signal-EC50(nM) EP4” value (hEP4/Gqs5) was “not active”, the “Ca2+ Signal-EC50(nM) TP” value (hTP) was “not active” and the “Ca2+ Signal-EC50(nM) IP” value (hIP) was “not active”. The “Ca2+ Signal-EC50(nM) DP” value (hDP/Gqs5) was “not active”.
